A short description of series [1]: Stability of halosilane in saturated aqueous salt solution. Format: physicochemical. The following applies: halosilane added to saturated aqueous salt solution. On the procedure: After cooling to room temperature, 25 ml of the saturated salt solution was added to a 50 ml beaker. To this, 1.2 ml of methyltrichlorosilane was slowly added and stirred into the saturated water. […] A piece of maple wood was added to the solution and vigorously stirred. The dissolved methyltrichlorosilane reacted with the wood and produced hydrochloric acid (HCl) gas as a by-product. There was a slight exotherm observed. After 2 minutes, the wood was removed from the water solution and air-dried. […] The water remained tightly beaded up and gradually evaporated after 30 minutes.

Series [2] can be described thus: Solubility / miscibility in water. Format: physicochemical.

“Also recorded” adds a separate entry of the source.

This is an account of results in patent publication US9605384B2, “Hydrophobic paper, cardboard, and packaging” (STL SUSTAINABLE TECHNOLOGIES, LLC, priority 2010, dated 2017).

As to `C[Si](Cl)(Cl)Cl` [methyltrichlorosilane], the “reaction with water of the saturated salt solution” value in series [1] is listed as “did not react with the water; also recorded: no reaction; also recorded: No exotherm or reaction was observed”.

As to `CCCCCCCC[Si](OCC)(OCC)OCC` [n-octyltriethoxysilane], the miscibility with water entry in series [2] was “not very miscible at any concentration”.

Turning to `CO[Si](C)(OC)OC` [methyltrimethoxysilane], the miscibility with water entry in series [2] was “readily miscible with water”.
